Assay results from patent US20070154452A1, “Therapeutic agent for pancreas cancer” (ORIENT CANCER THERAPY, priority 2004, published 2007).
Counter-ions that a name gives are not always drawn.

Legend:
Format in all cases: in vivo, human
IFNγ = IFNγ production of the patients' peripheral blood monocyte fraction (EIA); set-up: dose or concentration left out as unconfirmed; details: pancreas cancer, 8 cases, before and after Gemzar for three weeks then a week break, FIG. 3
Method: Firstly, a monocyte fraction is separated from blood for preparation. After heparinized peripheral blood is diluted twofold with Phosphate Buffer Saline (PBS) and mixed, the mixture is overlaid on Ficoll-Conray solution (specific gravity 1.077), centrifuged at […] for 20 minutes to collect a monocyte fraction. After washing it, RPMI-1640 medium added with 10% fetal bovine serum (FBS) is added and prepared such that the cell number becomes 1×10^6. Into 200 μl of the obtained cell suspension, Phytohemagglutinin (supplied by DIFCO) is added into a concentration of 20 μg/ml, then cultured it in a 96-well microplate in the presence of 5% CO2 at 37° C. for 24 hours to obtain a sample for measuring two kinds of cytokines in the cultured cell solution. The measurement of IFNγ was conducted by enzyme immunoassay (EIA method) using […] kit from BioSource Europe S. In practice, into a each well of a 96-well microplate, 50 μl of standard or the twofold dilution of prepared sample described above was dispensed, then 50 μl of anti-IFNγ antibody labeled with HRP was dispensed, and further allowed to react for 2 hours at room temperature with shaking. […] The amount of IFNγ is expressed as IU/ml.

IL-12 = IL-12 production of the patients' peripheral blood monocyte fraction (ELISA); details: pancreas cancer, 8 cases, before and after Gemzar 1000 mg/mm^2 for three weeks then a week break, FIG. 3
Method: Firstly, a monocyte fraction is separated from blood for preparation. After heparinized peripheral blood is diluted twofold with Phosphate Buffer Saline (PBS) and mixed, the mixture is overlaid on Ficoll-Conray solution (specific gravity 1.077), centrifuged at […] for 20 minutes to collect a monocyte fraction. After washing it, RPMI-1640 medium added with 10% fetal bovine serum (FBS) is added and prepared such that the cell number becomes 1×10^6. Into 200 μl of the obtained cell suspension, Phytohemagglutinin (supplied by DIFCO) is added into a concentration of 20 μg/ml, then cultured it in a 96-well microplate in the presence of 5% CO2 at 37° C. for 24 hours to obtain a sample for measuring two kinds of cytokines in the cultured cell solution. To measure the amount of IL-12, a measuring kit based on enzyme immunoassay (ELISA) available from, for example, R&D SYSTEMS and MBL is used, though well known clinical and biochemical examinations can be used. Herein, a measuring kit supplied by R&D SYSTEMS was used. In practice, into each well of a 96-well microplate, 50 μl of measuring diluent of Assay Diluent RD1F, and 200 μl of standard or sample prepared from the preparation method for measuring cytokines described above were dispensed, and then allowed it to stand and react at room temperature for 2 hours. […] The amount of IL-12 is expressed as pg/ml. […]

Th1/Th2 = Th1/Th2 before and after administration of Gemzar; details: pancreas cancer, 8 cases, before and after Gemzar 1000 mg/mm^2 for three weeks then a week break, FIG. 3
From the text: Gemcitabine hydrochloride (Gemzar™) is an anticancer agent developed by Eli Lilly and Company. This Gemzar was approved to apply for insurance for pancreas cancer in April in 2001. […] Inhibitory effects were also not observed in the ratios of NK cells (8 cases), perforin-producing NK cells (8 cases), NKT cells (8 cases) and perforin-producing NKT cells (8 cases) to total lymphocytes (FIG. 4).

NK cells and NKT cells = assay: Ratios of NK, NKT and perforin-producing cells to total lymphocytes (flow cytometry); details: pancreas cancer, 8 cases, before and after Gemzar, FIG. 4
Method: The measurement of NKT cells having NKR-P1 can be conducted by measuring cell surface antigens (CD3 and CD161 ) which are specifically presented on the NKT cell surface. In particular, lymphocytes in peripheral blood are tested for cells of CD3 positive and CD161 positive [CD3 (+) and CD161 (+)]. Thus, CD3 and CD161 which are cell surface antigens on NKT cell are measured by Two Color assay which uses monoclonal antibodies and flow cytometry. Here, activated NKT cells mean that the ratio of NKT [CD3 (+) and CD161 (+)] cells in lymphocytes is 10% or more, and more preferably 16% or more. The ability of activating NKT cell means the function which can increase NKT cell ratio by 10% or more, and more preferably 16% or more, or which can further increase NKT cell ratio more than that before administering a certain substance. Likewise, [CD3 (−) and CD161 (+) ] means to assay for CD3 negative and CD161 positive cells. This method is useful in measurement of NK cells. In addition, CD8 (+) means to assay for CD8 positive cells. This method is useful in measurement of CTL activity. In the Examples, bloods from cancer patients were used, and cells in blood were separated into positive and negative for cell surface antigens, CD3, CD161 and CD8, and each cell ratio was measured by Two Color assay using flow cytometry following a conventional manner. At this time, monoclonal antibodies used against CD3 , CD161 and CD8 were supplied by Coulter or Becton & Dickinson respectively. For lymphocytes in peripheral blood, two of CD3 , CD161 and CD8 of cell surface antigens and perforin are measured by Three Color assay using flow cytometry following a conventional manner. Specifically, into a collected blood, a fixative solution is added to fix cells, then after adding a membrane permeabilizer, an anti-perforin antibody (supplied by Pharmingen) is added for reaction, further secondary antibody labeled with PRE-Cy5 (from DAKO) is added for reaction, then anti-CD3-PE (Coulter 6604627) antibody and anti-CD161-FITC (B-D) antibody are added for reaction, thereafter subjected to measurement by flow cytometry. They were abbreviated as P or PER in figures and tables.

Nc1ccn([C@@H]2O[C@H](CO)[C@@H](O)C2(F)F)c(=O)n1 [Gemzar, gemcitabine hydrochloride]
not observed: effects inhibiting cytokines: IFNγ (IFNγ) | effects inhibiting cytokines: IL-12 (IL-12) | effects inhibiting cytokines: Th1/Th2 (Th1/Th2) | inhibitory effects on ratio of NK cells to total lymphocytes (NK cells and NKT cells) | inhibitory effects on ratio of NKT cells to total lymphocytes (NK cells and NKT cells) | inhibitory effects on ratio of perforin-producing NK cells to total lymphocytes (NK cells and NKT cells) | inhibitory effects on ratio of perforin-producing NKT cells to total lymphocytes (NK cells and NKT cells)
